# Source: patent US20240197700A1, “Methods and Compositions for Treating Lysosomal Storage Disorders” (Sanford Health, priority 2021, published 2024)
# Assays:
# Cln2^R207X mice [1] = assay: SubC burden (immunohistochemistry) in brain of Cln2^R207X mice; format: in vivo, mouse; conditions: for Subunit C burden: somatosensory cortex
# Procedure: (§1) Specific experimental details are included in figure legends. In general, after collection and preparation, MEFs and PNCs were dosed with vehicle or AF38469 (40 nM, 400 nM. or 4 μM) on DIV3 and DIV5. On DIV7, cells were treated with the following dyes: Hoechst 33342 (1:1000 dilution), LysoTrackerT™ Red DND-99 (1:10,000 dilution), fixed, and imaged. Mice were given vehicle or AF38469 (78.125 μg/ml, 3.125 μg/ml, 0.3125 μg/ml or 0.03125 μg/ml equating approximately to 250 μg/mouse/day, 10 μg/mouse/day, 1 μg/mouse/day, and […], respectively, given a mouse's daily water intake of approximately 3.2 ml per day) in drinking water beginning at wean. Body weight was measured bi-weekly, and a force actimeter test was performed on Cln2^R207X mice at 10 weeks of age. Body weight was measured every month for Cln3^Δex7/8 mice. At 11 and 16 weeks of age, respectively, Cln2^R207X and Cln3^Δex7/8 mice along with age matched wild type control mice were CO2 euthanized and intracardially perfused with PBS. Brains were collected and placed on a 1 mm sagittal brain block. Brains were sliced at the midline and 3 mm right of the midline. One hemisphere was fixed in 4% PFA and sectioned at 50 microns on a vibratome. Immunohistochemistry was performed on free-floating sections. For mitochondrial ATP synthase subunit C (SubC), glial fibrillary acidic protein (GFAP), and cluster of differentiation 68 (CD68) immunolabeling, primary antibodies included anti-SubC (Abcam, ab181243; 1:1000), anti-GFAP (Dako, Z0334; 1:5000), anti-CD68 (AbD Serotec, MCA1957; 1:2000), and secondary antibodies included anti-rabbit biotinylated (Vector Labs, BA-1000 1:1000) and anti-rat (Vector Labs, BA-9400 1:1000). Coverslips were mounted on slides using antifade-mounting media and were stored in the dark before imaging. Sections were imaged and analyzed using an Aperio Digital Pathology Slide Scanner (AT2) and associated software. Images were extracted from S1BF of the somatosensory cortex and the VPM/VPL of the thalamus, with multiple images taken of multiple tissues from each animal.
# Short-term chronic treatment with AF38469 reduces storage material burden in Cln2^R207X and Cln3^Δex7/8 mice. Beginning at wean, wild type and Cln2^R207X mice were treated with vehicle (0.2408% DMSO) or AF38469 (0.03125 μg/ml, 0.3125 μg/ml, 3.125 μg/ml, 78.125 μg/ml) continuously through the drinking water continuing until sacrifice at 11 weeks. […] Sections were imaged and analyzed using an Aperio Digital Pathology Slide Scanner (AT2) and associated software. […] Percent area of immunoreactivity were quantified using a threshold analysis in ImageJ™. […]
# Cln2^R207X mice [2] = assay: Tremor index score on force plate actimeter in Cln2^R207X mice; format: in vivo, mouse; conditions: for tremor index score: 10 weeks of age
# Procedure: as §1
# Short-term chronic treatment with AF38469 reduced tremor phenotype in Cln2^R207X mice. Beginning at wean, wild type and Cln2^R207X mice were treated with vehicle (0.2408% DMSO) or AF38469 (0.03125 μg/ml, 0.3125 μg/ml, 3.125 μg/ml, 78.125 μg/ml) continuously through the drinking water. At 10 weeks of age, wild type and Cln2^R207X mice were evaluated on the force plate actimeter. Evaluation of tremors with the force plate actimeter software produces a tremor index score based on the tremor frequency 5-10 Hz (A), 10-15 Hz (B), 15-20 Hz (C) and 20-25 Hz (D). Data was analyzed with Graphpad. Two-way ANOVA. Mean±S.E.M. Dunnett's multiple comparisons test. *p<0.05, **p<0.01, ***p<0.001, ****p<0.0001. […]
# [3] = Stability of semaglutide in solution (vehicle formulation); format: physicochemical; conditions: 4° C.
# Procedure: In in vitro models, semaglutide (Creative Peptides, Catalog #910463-68-2) was tested in concentrations of 10 nM, 100 nM, and 1 μM in 1% DMSO. Vehicle treated cells were dosed with 1% DMSO. In in vivo models, semaglutide (Creative Peptides, Catalog #910463-68-2) was tested in concentrations of 2.571 μg/mouse and 25.71 μg/mouse prepared using the vehicle formulation for a total injection volume of 0.2 ml. Compound was stable in solution for 56 days at 4° C. Semaglutide was utilized at 98% HPLC purity.
Compound,"Subunit C burden (Cln2^R207X mice [1]; 0.03125 μg/ml, 0.3125 μg/ml in drinking water, 11 weeks)","SubC burden (Cln2^R207X mice [1]; 3.125 μg/ml, 78.125 μg/ml in drinking water, VPM/VPL of the thalamus, 11 weeks, vs vehicle Cln2^R207X)","Subunit C burden (Cln2^R207X mice [1]; 78.125 μg/ml in drinking water, 11 weeks)","SubC accumulation (Cln2^R207X mice [1]; overall statement, short term treatment, Cln2^R207X)","tremor index score (Cln2^R207X mice [2]; 5-10 Hz, vs vehicle Cln2^R207X)","tremor index score (Cln2^R207X mice [2]; 10-15 Hz, 0.3125 μg/ml)","tremor index score (Cln2^R207X mice [2]; 15-20 Hz and 20-25 Hz, 0.03125 μg/ml, 0.3125 μg/ml, 3.125 μg/ml)","tremor index scores (Cln2^R207X mice [2]; lower concentrations, summary statement)",stable in solution [3] [days]
"Cc1cccc(NC(=O)c2ccc(C(F)(F)F)cc2C(=O)O)n1 [AF38469, 2-((6-methylpyridin-2-yl)carbamoyl)-5-(trifluoromethyl)benzoic acid]",significantly decreased,did not have an impact,significantly decreased,reduces,had no impact,significantly reduced,significantly reduced,significantly reduce,–
semaglutide,–,–,–,–,–,–,–,–,56
